Reference: patent US20080004694A1, “COMPOSITIONS AND METHODS FOR ADMINISTERING DEXAMETHASONE WHICH PROMOTE HUMAN CORONARY ARTERY ENDOTHELIAL CELL MIGRATION” (ABBOTT LABORATORIES, priority 2006, published 2008)
“Also recorded” adds a separate entry of the source.

Columns and labels:
[1] = system: p70S6K (T389) phosphorylation in hCaEC; test: Western blot of p70S6K (T389) phosphorylation in hCaEC; assay type: cell-based, human; conditions: for effect on p70S6K T389 phosphorylation in hCaEC: 300 nM drug in growth media, 36 hours, after 24 h synchronization
Description: Human Coronary Endothelial Cells (hCaEC, Cambrex) were seeded on 100 mm plastic dishes (1-3×10^5 cells per dish) and incubated at 37° C. with 5% CO2 in complete growth media containing hFGF, HEGF, VEGF, R^3-IGF-1 and 5% FBS (GM). Cells were allowed to grow until dishes were 30-40% confluent. Cells were synchronized by incubation in basal media without supplements (BM) for 24 h. After synchronization the BM was replaced with GM containing test compounds, DMSO and BSA (Experimental dish: GM containing 300 nM test compounds, 0.1% BSA; Positive control: GM containing 0.1% BSA and 0.1% DMSO; Negative control: BM containing 0.1 or 0.5% FBS, 0.1% BSA and 0.1% DMSO).
Cells were incubated for 24 or 36 hours at 37° C. with 5% CO2. After which dishes were 50-70% confluent. Dishes were rinsed with warm PBS to remove excess FBS and than placed on ice. Whole cell lysates were prepared by adding 150-200 ul of RIPA lysis buffer at 4° C. (50 mM Tris HCl pH 8, 150 mM NaCl, 1% NP-40, 0.5% sodium deoxycholate, 0.1% SDS, 2 mM PMSF, 1 mM sodium orthovanadate, and protease inhibitor cocktail, Santa Cruz Biotechnology) to the culture dishes and collected by scrapping the plate surface with a cell scrapper. Lysates were transferred to 1 ml eppendorf tubes and incubated on ice with vortexing for 30 min. Samples were than centrifuged for 8 min at 10000 rpm. Supernatants were collected and transferred into new tubes and stored at −70° C.
The total protein concentration of the samples was determined by a modification of the method of Bradford (Quick Start Bradford Microplate Standard Assay, Bio-Rad) with bovine γ-globulin as a standard.
Total volume of the loaded sample was 45 ul containing 15 ul of 3× sample buffer (Laemmli Sample Buffer, Bio Rad), and sample (30 ul) containing 25 to 50 ug of protein. Samples were diluted to the same protein concentration. Samples were mixed and boiled at 98° C. for 3-4 minutes. Denaturated samples were separated in 4-15% gradient or 12% Ready Tris-HCl gels (Bio-Rad) in running buffer 25 mM Tris, pH 8.3, 192 mM glycine, 0.1% SDS at 150-180 V for 60-90 minutes and transferred to Hybond-ECL membrane (Amersham Biosciences) in 25 mM Tris, pH 8.3, 192 mM glycine, 20% methanol at 100 V for 1 hour.
Protein transfer to the membrane was verified by staining with Ponceau. Ponceau was removed by washing membranes 3 times for 5 minutes in TBS-T (10 mM Tris, pH 7.4, 150 mM NaCl, and 0.1% Tween 20). The membrane was blocked with a 3% solution of nonfat dry milk (Blotting-Grade Blocker, Bio-Rad) in TBS-T for 1 hour at room temperature. Membranes were then incubated with rabbit anti-phospho-p70S6K (T389) monoclonal antibody (Cell Signaling) 1:200 or 1:400 in 3% nonfat dry milk overnight at +4° C. and gently rocked. Goat polyclonal antibodies raised against the C-terminus of actin of human origin (Santa-Cruz Biotechnology) were used at a 1:800 dilution.
After overnight incubation with the primary antibody, membranes were washed with TBS-T 3 times for 5 minutes followed by incubation with the appropriate horseradish peroxidase linked secondary antibodies in 3% nonfat dry milk according to antibody supplier instructions. After one-hour incubation at room temperature with secondary antibodies the membrane was washed again using TBS-T, 3 times for 5 minutes and developed using ECL Plus (Amersham Biosciences). Images of the membranes were scanned and stored using a multi-channel scanning system FLA-5000 (FUJI Film). […]

[2] = system: human coronary artery endothelial cells (hCaEC); test: hCaEC migration induced by full growth media after 24 h drug pretreatment; assay type: cell-based; conditions: for effect on full growth media induced hCaEC migration after drug pretreatment: 24 h pretreatment in full growth media, drug present during migration
Description: (§1) In acute studies, cells were collected, counted, and 200,000 hCaEC or 160,000 hCaSMC placed in the upper chambers of modified boyden chambers in 24 well plates (BD Biosciences). Plates contained microporous membranes of 3.0 and 8.0 um for hCaEC and hCaSMC, respectively. […] After migration, cells were stained with calcein-AM for 90 minutes and fluorescence determined using a plate reader capable of measuring fluorescence emitted by the bottom of the microporous filter.
Migration of hCaEC was induced by full growth media and the effects of the drugs sirolimus, dexamethasone, zotarolimus, everolimus, and paclitaxel on hCaEC migration determined. Following pretreatment cells were counted and re-suspended in basal media containing drugs and migration initiated.

[3] = system: human coronary artery endothelial cells (hCaEC); test: hCaEC migration in response to FBS after 24 h drug pretreatment; assay type: cell-based; conditions: 24 h pretreatment in growth media; migration to 5% FBS without growth factors; drug present
Description: as §1
To determine if growth factors contained in full growth media played a role in the inability of the mTOR antagonists (sirolimus or zotarolimus) or dexamethasone to inhibit migration, additional experiments were conducted to determine if drug pretreatment would affect migration induced by 5% FBS in the absence of growth factors. Migration in response to FBS following pretreatment of hCaEC with different concentrations of drugs was determined for the drugs sirolimus, dexamethasone, zotarolimus, and paclitaxel. To explore this effect in hCaEC, cells were synchronized, pretreated with drug in growth media for 24 hours, resuspended in basal media containing drug and migration in response to FBS determined. […] Dexamethasone promoted hCaEC migration.

[4] = system: human coronary artery smooth muscle cells (hCaSMC); test: hCaSMC migration in response to FBS alone after 24 h drug pretreatment; assay type: cell-based; conditions: 24 h pretreatment in growth media, drug present
Description: as §1
Another experiment was conducted to determine if growth factors contained in full growth media played a role in the inability of the mTOR antagonist zotarolimus or dexamethasone to inhibit human coronary artery smooth muscle cell (hCaSMC) migration. Migration in response to FBS following pretreatment of hCaSMC with different concentrations of drugs was determined for the drugs dexamethasone, zotarolimus, rapamycin, and paclitaxel. To explore this effect, hCaSMC were synchronized, pretreated with drug in growth media for 24 hours, resuspended in basal media containing drug and migration in response to FBS alone determined.

[5] = system: human coronary artery endothelial cells (hCaEC); test: hCaEC migration, modified Boyden chamber, acute drug exposure, induced by 5% FBS; assay type: cell-based; conditions: for effect on hCaEC migration: no pretreatment, 22 hour migration
Description: As such, EC and SMC migration in response to hFGF, HEGF, VEGF, R^3-IGF-1 and FBS or FBS alone was determined using a modified Boyden chamber.
When necessary, each cell type was passed at ˜75% confluence.
as §1

[6] = system: human coronary artery smooth muscle cells (hCaSMC); test: PDGF-BB induced hCaSMC migration after 24 h drug pretreatment; assay type: cell-based; conditions: 24 h pretreatment; PDGF-BB 25 ng/ml
Description: as §1
Pre-exposure with the mTOR agent sirolimus has been reported to block rat aortic smooth muscle cell migration in response to S1P-1 and porcine aortic smooth muscle in response to PDGF-BB. […] In contrast to their inability to block serum-induced migration, zotarolimus, dexamethasone, and paclitaxel all inhibited migration in response to the single chemotactic agent PDGF-BB (25 ng/ml).

[7] = system: p70S6K (T389) phosphorylation in hCaSMC; test: Western blot of p70S6K (T389) phosphorylation in hCaSMC; assay type: cell-based, human; conditions: 300 nM drug, 36 hours, after 24 h synchronization
Description: To determine if inhibition of p70S6K was involved in serum-induced migration Western blot experiments were performed on hCaEC and hCaSMC treated using an experimental paradigm similar to those of the migration experiments. […] The effects of drug treatment on p70S6K T389 phosphorylation in hCaEC are illustrated in FIG. 6A-6B. […] Paclitaxel also reduces T389 phosphorylation though this effect is less than that of the mTOR antagonists.
Membranes were probed with a rabbit anti-phospho-p70S6K (T389) monoclonal antibody (Cell Signaling). […] Furthermore, the anti-migratory activity of the mTOR antagonists is not likely to contribute to their anti-restenotic activity. Conversely, paclitaxel is a potent anti-migratory agent and this effect is likely to contribute to the anti-restenotic activity.

pRb phosphorylation = test: pRb phosphorylation; assay type: cell-based

| Structure (SMILES) | effect on p70S6K T389 phosphorylation in hCaEC [1] | effect on full growth media induced hCaEC migration after drug pretreatment [2] | effect on FBS-induced hCaEC migration after drug pretreatment [3] | effect on p70S6K T389 phosphorylation in hCaEC ([1]; listed as Paclitaxel) | effect on FBS-induced hCaSMC migration after drug pretreatment [4] | effect on migration of human coronary artery endothelial cells in vitro (summary statement) ([2]; in the presence of multiple growth factors and FBS) | anti-migratory potency in hCaEC compared to hCaSMC [5] | effect on hCaSMC migration in response to PDGF-BB [6] | effect on p70S6K T389 phosphorylation in hCaSMC [7] | effect on hCaEC migration [5] | p70S6K T389 to actin ratio compared to growth controls (densitometry) ([1]; hCaEC, 300 nM drug) | effect on pRb phosphorylation (pRb phosphorylation) |
| --- | --- | --- | --- | --- | --- | --- | --- | --- | --- | --- | --- | --- |
| C[C@@H]1C[C@H]2[C@@H]3CCC4=CC(=O)C=C[C@]4(C)[C@@]3(F)[C@@H](O)C[C@]2(C)[C@@]1(O)C(=O)CO [dexamethasone] | does not inhibit | – | – | – | – | – | – | – | – | – | – | – |
| CO[C@H]1C[C@@H]2CC[C@@H](C)[C@@](O)(O2)C(=O)C(=O)N2CCCC[C@H]2C(=O)O[C@H]([C@H](C)C[C@@H]2CC[C@@H](OCCO)[C@H](OC)C2)CC(=O)[C@H](C)/C=C(\C)[C@@H](O)[C@@H](OC)C(=O)[C@H](C)C[C@H](C)/C=C/C=C/C=C/1C [everolimus] | – | only paclitaxel inhibits | – | – | – | – | – | – | – | – | – | – |
| CC(=O)O[C@H]1C(=O)[C@@]2(C)[C@H]([C@H](OC(=O)c3ccccc3)[C@]3(O)C[C@H](OC(=O)[C@H](O)[C@@H](NC(=O)c4ccccc4)c4ccccc4)C(C)=C1C3(C)C)[C@]1(OC(C)=O)CO[C@@H]1C[C@@H]2O [paclitaxel] | inhibit | inhibits | significantly blocks | reduces | significantly blocks | inhibits | significantly greater | inhibited | reduces | – | – | – |
| CO[C@H]1C[C@@H]2CC[C@@H](C)[C@@](O)(O2)C(=O)C(=O)N2CCCC[C@H]2C(=O)O[C@H]([C@H](C)C[C@@H]2CC[C@@H](O)[C@H](OC)C2)CC(=O)[C@H](C)/C=C(\C)[C@@H](O)[C@@H](OC)C(=O)[C@H](C)C[C@H](C)/C=C/C=C/C=C/1C [sirolimus] | – | – | – | – | – | – | – | – | – | no effect | – | – |
| CO[C@H]1C[C@@H]2CC[C@@H](C)[C@@](O)(O2)C(=O)C(=O)N2CCCC[C@H]2C(=O)O[C@H]([C@H](C)C[C@@H]2CC[C@H](n3cnnn3)[C@H](OC)C2)CC(=O)[C@H](C)/C=C(\C)[C@@H](O)[C@@H](OC)C(=O)[C@H](C)C[C@H](C)/C=C/C=C/C=C/1C [zotarolimus] | completely block; also recorded: inhibit | only paclitaxel inhibits | did not significantly block | – | did not significantly block | – | – | inhibited | completely inhibit | no effect | significant inhibition | reduces |
